Literature values as cited in patent publication US7208487B2, “Compounds, compositions and methods” (Cytokinetics, Incorporated, priority 2002, dated 2007).

Test system: A549 cells

Compound | GI50 [µM]
NC(=O)NO [hydroxyurea] | 500
CC(=O)O[C@H]1C(=O)[C@@]2(C)[C@H]([C@H](OC(=O)c3ccccc3)[C@]3(O)C[C@H](OC(=O)[C@H](O)[C@@H](NC(=O)c4ccccc4)c4ccccc4)C(C)=C1C3(C)C)[C@]1(OC(C)=O)CO[C@@H]1C[C@@H]2O [paclitaxel] | 0.004
COc1cccc2c1C(=O)c1c(O)c3c(c(O)c1C2=O)C[C@@](O)(C(=O)CO)C[C@@H]3O[C@H]1C[C@H](N)[C@H](O)[C@H](C)O1 [doxorubicin] | 0.063
O=c1[nH]cc(F)c(=O)[nH]1 [5-fluorouracil] | 1
